From ChEMBL document CHEMBL5214930, “Discovery of the First Selective IDO2 Inhibitor As Novel Immunotherapeutic Avenues for Rheumatoid Arthritis” (J Med Chem, 2022) come the findings set out here.

Each structure is given as a SMILES string.

The first assay has as its system Mus musculus. Briefly: Antiinflammatory activity against xylene-induced ear swelling ICR mouse model assessed as swelling rate at 100 mg/kg, IG measured after 1 hr (Activity = 58.21 +/- 12.79%). Format: functional.
In the case of `O=C(NCc1cn(CCNc2nonc2/C(=N/O)Nc2ccc(F)c(Br)c2)nn1)c1ccc[nH]1`, the Activity is recorded as 27.84%.
Regarding `COc1ccc2cc([C@H](C)C(=O)O)ccc2c1` [NAPROXEN], the Activity came out at 31.85%.
Same read-out and setting: for `O=C(NCc1cn(CCNc2nonc2/C(=N/O)Nc2ccc(F)c(Br)c2)nn1)c1ccccn1` the value was 36.71%.

In another assay the target is T1, Indoleamine 2,3-dioxygenase 2 (Homo sapiens, UniProt Q6ZQW0).
T1 sequence (Q6ZQW0 whole entry): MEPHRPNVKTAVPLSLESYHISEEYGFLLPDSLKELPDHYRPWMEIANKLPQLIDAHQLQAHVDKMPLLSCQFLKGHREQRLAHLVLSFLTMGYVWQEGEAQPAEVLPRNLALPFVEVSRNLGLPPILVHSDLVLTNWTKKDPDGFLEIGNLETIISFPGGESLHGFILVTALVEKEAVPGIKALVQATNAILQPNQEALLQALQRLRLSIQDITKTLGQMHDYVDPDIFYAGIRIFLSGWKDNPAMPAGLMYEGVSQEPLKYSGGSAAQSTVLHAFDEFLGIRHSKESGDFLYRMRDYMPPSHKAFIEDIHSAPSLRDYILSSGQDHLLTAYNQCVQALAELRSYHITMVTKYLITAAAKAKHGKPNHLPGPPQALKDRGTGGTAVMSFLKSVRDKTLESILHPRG
Briefly: Inhibition of IDO2 (unknown origin).
On to `c1ccc(CCc2ccccc2-c2c[nH]nn2)cc1`, for which inhibition was half-maximal at 51000 nM (IC50).
The molecule `COc1ccc2[nH]c([S+]([O-])Cc3ncc(C)c(OC)c3C)nc2n1` (stereo not drawn) [TENATOPRAZOLE] had an IC50 of 1800 nM.

A further assay deals with T2, Indoleamine 2,3-dioxygenase 1 (Homo sapiens, UniProt P14902). Briefly: Inhibition of recombinant human IDO1 in HeLa cells at 100 nM relative to control. Format: cell-based.
Target sequence in this assay (P14902 whole entry, looked up): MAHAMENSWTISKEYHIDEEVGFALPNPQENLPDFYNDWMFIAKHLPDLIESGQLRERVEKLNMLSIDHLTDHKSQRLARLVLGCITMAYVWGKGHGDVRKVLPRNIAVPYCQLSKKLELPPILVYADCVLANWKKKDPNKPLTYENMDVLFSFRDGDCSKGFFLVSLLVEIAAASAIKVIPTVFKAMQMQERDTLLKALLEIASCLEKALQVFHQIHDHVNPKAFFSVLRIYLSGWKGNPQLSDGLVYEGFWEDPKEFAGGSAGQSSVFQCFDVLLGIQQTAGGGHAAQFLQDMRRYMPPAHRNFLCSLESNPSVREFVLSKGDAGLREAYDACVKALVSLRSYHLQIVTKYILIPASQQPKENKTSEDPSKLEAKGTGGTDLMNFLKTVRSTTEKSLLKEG
Turning to `O=C(NCc1cn(CCNc2nonc2/C(=N/O)NCc2ccccc2Br)nn1)c1ccc[nH]1`, the inhibition amounted to 1%.
Same read-out and setting: for `O=C(NCc1cn(CCNc2nonc2/C(=N/O)NCc2ccc(F)c(Br)c2)nn1)c1ccccn1` the value was 26%.
The same measure, in the same setting: for `Cc1cc(Br)cc(N/C(=N\O)c2nonc2NCCn2cc(CNC(=O)c3ccccn3)nn2)c1` the value was 20%; for `O=C(NCc1cn(CCNc2nonc2/C(=N/O)Nc2cccc(Cl)c2)nn1)c1ccccn1`, 69%; for `O=C(NCc1cn(CCNc2nonc2/C(=N/O)Nc2ccc(F)cc2)nn1)c1ccccn1`, 4%.
Still for that read-out and setting: the result for `O=C(NCc1cn(CCNc2nonc2/C(=N/O)NCc2ccc(F)cc2)nn1)c1ccc[nH]1` reads 9%; that for `O=C(NCc1cn(CCNc2nonc2/C(=N/O)Nc2ccc(F)c(Br)c2)nn1)c1ccc[nH]1`, 75%; that for `O=C(NCc1cn(CCNc2nonc2/C(=N/O)NCc2ccccc2Br)nn1)c1ccccn1`, 5%.
Consider `O=C(NCc1cn(CCNc2nonc2/C(=N/O)Nc2ccc(F)c(C(F)(F)F)c2)nn1)c1ccccn1`, for which the inhibition was determined as 44%.
Same read-out and setting: for `O=C(NCc1cn(CCNc2nonc2/C(=N/O)Nc2ccc(F)c(Br)c2)nn1)c1ccccn1` the value was 72%.

A further assay relates to Mus musculus. Briefly: Antiinflammatory activity against xylene-induced ear swelling ICR mouse model assessed as swelling inhibition ratio at 100 mg/kg, IG measured after 1 hr. The format is functional. Further details: scale not given: the % may be the effect or the level left.
Turning to `O=C(NCc1cn(CCNc2nonc2/C(=N/O)Nc2ccc(F)c(Br)c2)nn1)c1ccc[nH]1`, the Activity was found to be 52.17%.
Same read-out and setting: for `COc1ccc2cc([C@H](C)C(=O)O)ccc2c1` [NAPROXEN] the value was 45.29%; for `O=C(NCc1cn(CCNc2nonc2/C(=N/O)Nc2ccc(F)c(Br)c2)nn1)c1ccccn1`, 36.94%.

Another assay deals with T3, Indoleamine 2,3-dioxygenase 2 (Homo sapiens) (UniProt Q6ZQW0).
T3 sequence (whole entry): T1 sequence (Q6ZQW0 whole entry)
Briefly: Inhibition of recombinant human IDO2 in HeLa cells at 100 nM relative to control. Format: cell-based.
`Cc1cc(Br)cc(N/C(=N\O)c2nonc2NCCn2cc(CNC(=O)c3ccccn3)nn2)c1`: the inhibition is 14%.
Consider `O=C(NCc1cn(CCNc2nonc2/C(=N/O)Nc2ccc(F)cc2)nn1)c1ccccn1`, for which the inhibition came to 5%.
Turning to `O=C(NCc1cn(CCNc2nonc2/C(=N/O)Nc2ccc(F)c(Br)c2)nn1)c1ccc[nH]1`, the inhibition turned out to be 51%.
As to `O=C(NCc1cn(CCNc2nonc2/C(=N/O)Nc2ccc(F)c(C(F)(F)F)c2)nn1)c1ccccn1`, the inhibition came to 6%.
For `O=C(NCc1cn(CCNc2nonc2/C(=N/O)Nc2ccc(F)c(Br)c2)nn1)c1ccccn1`, the inhibition was determined as 39%.

In a further assay the target is T2, Indoleamine 2,3-dioxygenase 1. Description: Inhibition of human IDO1.
Target sequence in this assay (P14902 whole entry): as the sequence (P14902 whole entry, looked up) above
Turning to `O=C(NCc1cn(CCNc2nonc2/C(=N/O)Nc2ccc(F)c(Br)c2)nn1)c1ccc[nH]1`, the half-inhibitory concentration (IC50) was determined as 47 nM.
On the same count and under the same terms, for `O=C(NCc1cn(CCNc2nonc2/C(=N/O)Nc2ccc(F)c(Br)c2)nn1)c1ccccn1` the value was 52 nM.

The next assay shares this target. Briefly: Inhibition of IDO1 (unknown origin).
Target sequence in this assay (P14902 whole entry): as the sequence (P14902 whole entry, looked up) above
Consider `COc1ccc2[nH]c([S+]([O-])Cc3ncc(C)c(OC)c3C)nc2n1` (stereo not drawn) [TENATOPRAZOLE], for which the IC50 was > 100000 nM.

The next assay concerns the target T1, Indoleamine 2,3-dioxygenase 2. Description: Inhibition of human IDO2.
In turn, `O=C(NCc1cn(CCNc2nonc2/C(=N/O)Nc2ccc(F)c(Br)c2)nn1)c1ccc[nH]1` had an IC50 of 134 nM.
The same measure, in the same setting: the result for `O=C(NCc1cn(CCNc2nonc2/C(=N/O)Nc2ccc(F)c(Br)c2)nn1)c1ccccn1` reads 387 nM.

The test system of another assay is HeLa. Description: Antiproliferative activity against human HeLa cells. Format: functional, cell-based.
Consider `O=C(NCc1cn(CCNc2nonc2/C(=N/O)NCc2ccccc2Br)nn1)c1ccc[nH]1`, for which the 50% effective concentration (EC50) was determined as 2850 nM.
On the same count and under the same terms, for `O=C(NCc1cn(CCNc2nonc2/C(=N/O)NCc2ccc(F)c(Br)c2)nn1)c1ccccn1` the value was 1790 nM.
Still for that read-out and setting: the result for `Cc1cc(Br)cc(N/C(=N\O)c2nonc2NCCn2cc(CNC(=O)c3ccccn3)nn2)c1` reads 611 nM; that for `O=C(NCc1cn(CCNc2nonc2/C(=N/O)Nc2cccc(Cl)c2)nn1)c1ccccn1`, 106 nM; that for `O=C(NCc1cn(CCNc2nonc2/C(=N/O)Nc2ccc(F)cc2)nn1)c1ccccn1`, 1380 nM.
Still for that read-out and setting: for `O=C(NCc1cn(CCNc2nonc2/C(=N/O)NCc2ccc(F)cc2)nn1)c1ccc[nH]1` the value was 1210 nM; for `O=C(NCc1cn(CCNc2nonc2/C(=N/O)Nc2ccc(F)c(Br)c2)nn1)c1ccc[nH]1`, 73 nM; for `O=C(NCc1cn(CCNc2nonc2/C(=N/O)NCc2ccccc2Br)nn1)c1ccccn1`, 4350 nM.
With `O=C(NCc1cn(CCNc2nonc2/C(=N/O)Nc2ccc(F)c(C(F)(F)F)c2)nn1)c1ccccn1`, the EC50 worked out at 456 nM.
Same read-out and setting: for `O=C(NCc1cn(CCNc2nonc2/C(=N/O)Nc2ccc(F)c(Br)c2)nn1)c1ccccn1` the value was 129 nM.

Another assay addresses T3, Indoleamine 2,3-dioxygenase 2 (Homo sapiens). Description: Inhibition of recombinant human IDO2 in HeLa cells at […] relative to control. The format is cell-based.
`O=C(NCc1cn(CCNc2nonc2/C(=N/O)NCc2ccccc2Br)nn1)c1ccc[nH]1`: the inhibition was found to be 4%.
Still for that read-out and setting: for `O=C(NCc1cn(CCNc2nonc2/C(=N/O)NCc2ccc(F)c(Br)c2)nn1)c1ccccn1` the value was 5%.
Still for that read-out and setting: for `Cc1cc(Br)cc(N/C(=N\O)c2nonc2NCCn2cc(CNC(=O)c3ccccn3)nn2)c1` the value was 61%; for `O=C(NCc1cn(CCNc2nonc2/C(=N/O)Nc2cccc(Cl)c2)nn1)c1ccccn1`, 15%; for `O=C(NCc1cn(CCNc2nonc2/C(=N/O)Nc2ccc(F)cc2)nn1)c1ccccn1`, 30%.
On the same count and under the same terms, the result for `O=C(NCc1cn(CCNc2nonc2/C(=N/O)NCc2ccc(F)cc2)nn1)c1ccc[nH]1` reads 10%; that for `O=C(NCc1cn(CCNc2nonc2/C(=N/O)Nc2ccc(F)c(Br)c2)nn1)c1ccc[nH]1`, 86%.
As to `O=C(NCc1cn(CCNc2nonc2/C(=N/O)NCc2ccccc2Br)nn1)c1ccccn1`, the inhibition was found to be 2%.
As to `O=C(NCc1cn(CCNc2nonc2/C(=N/O)Nc2ccc(F)c(C(F)(F)F)c2)nn1)c1ccccn1`, the inhibition was 40%.
Same read-out and setting: for `O=C(NCc1cn(CCNc2nonc2/C(=N/O)Nc2ccc(F)c(Br)c2)nn1)c1ccccn1` the value was 61%.

One may read the IC50 as the concentration needed to halve the response being measured. The inhibition is how much of the control response was suppressed. For orientation: EC50 means the concentration that produces a half-maximal response.
